Reference: the supplement of paper PMC9663587

Key:
Assay in all cases: area over the GR curve, 72 h; higher = more effect;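 also: Dye Drop or Deep Dye Drop imaging of viable cells in 384-well plates (Hoechst nuclei, LIVE/DEAD dye), nine half-log doses, GR normalized to DMSO controls and time-zero plates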
[1] = tested on: SUM52PE
[2] = tested on: HS578T
[3] = tested on: HCC1143
[4] = tested on: UACC893
[5] = tested on: HCC38
[6] = tested on: MCF7
[7] = tested on: T47D
[8] = tested on: EFM19
[9] = tested on: HCC1569
[10] = tested on: BT474
[11] = tested on: SUM159
[12] = tested on: MDAMB231
[13] = tested on: SUM229PE

## CNc1nc(-c2ccc3c(N)n[nH]c3c2)cc(N2C[C@@H](C(=O)NC3CCCCC3)CC[C@H]2C)n1 (max 10 µM)
[1]
  area over the GR curve: 0.124 GR
[2]
  area over the GR curve: 0.157 GR
[3]
  area over the GR curve: 0.0906 GR
[4]
  area over the GR curve: 0.137 GR
[5]
  area over the GR curve: 0.0564 GR
[6]
  area over the GR curve: 0.256 GR
[7]
  area over the GR curve: 0.394 GR
[8]
  area over the GR curve: 0.293 GR
[9]
  area over the GR curve: 0.114 GR
[10]
  area over the GR curve: 0.332 GR
[11]
  area over the GR curve: 0.106 GR
[12]
  area over the GR curve: 0.149 GR
[13]
  area over the GR curve: 0.0671 GR

## CCC(=O)Nc1ccc(C(=O)Nc2ccc(Nc3ncc4c(n3)N(C)c3ccc(C)cc3C(=O)N4C)cc2)cc1 [FMF-03-145-1]
[1]
  area over the GR curve: 0.91 GR
[2]
  area over the GR curve: 1.07 GR
[3]
  area over the GR curve: 0.389 GR
[4]
  area over the GR curve: 0.869 GR
[5]
  area over the GR curve: 0.581 GR
[6]
  area over the GR curve: 0.957 GR
[7]
  area over the GR curve: 0.979 GR
[8]
  area over the GR curve: 0.341 GR
[9]
  area over the GR curve: 1 GR
[10]
  area over the GR curve: 0.951 GR
[11]
  area over the GR curve: 0.476 GR
[12]
  area over the GR curve: 0.947 GR
[13]
  area over the GR curve: 1.06 GR

## CC(C)n1nc(-c2ccc3oc(N)nc3c2)c2c(N)ncnc21 [INK128/MLN0128] (max 3.162 µM)
[1]
  area over the GR curve: 0.572 GR
[2]
  area over the GR curve: 0.623 GR
[3]
  area over the GR curve: 0.474 GR
[4]
  area over the GR curve: 0.745 GR
[5]
  area over the GR curve: 0.536 GR
[6]
  area over the GR curve: 0.726 GR
[7]
  area over the GR curve: 0.689 GR
[8]
  area over the GR curve: 0.682 GR
[9]
  area over the GR curve: 0.508 GR
[10]
  area over the GR curve: 0.834 GR
[11]
  area over the GR curve: 0.356 GR
[12]
  area over the GR curve: 0.486 GR
[13]
  area over the GR curve: 0.379 GR

## O=C1NC(=NCc2cccs2)SC1=Cc1ccc2ncccc2c1 [R0-3306] (max 10 µM)
[1]
  area over the GR curve: 0.0606 GR
[2]
  area over the GR curve: 0.139 GR
[3]
  area over the GR curve: 0.262 GR
[4]
  area over the GR curve: 0.0158 GR
[5]
  area over the GR curve: 0.0714 GR
[6]
  area over the GR curve: 0.0991 GR
[7]
  area over the GR curve: 0.14 GR
[8]
  area over the GR curve: 0.132 GR
[9]
  area over the GR curve: 0.022 GR
[10]
  area over the GR curve: 0.22 GR
[11]
  area over the GR curve: 0.0665 GR
[12]
  area over the GR curve: 0.0059 GR
[13]
  area over the GR curve: 0.0926 GR

## COc1cc2c(Oc3ccc4[nH]c(C)cc4c3F)ncnc2cc1OCCCN1CCCC1 [Cediranib/AZD2171] (max 10 µM)
[1]
  area over the GR curve: 0.379 GR
[2]
  area over the GR curve: 0.394 GR
[3]
  area over the GR curve: 0.165 GR
[4]
  area over the GR curve: 0.122 GR
[5]
  area over the GR curve: 0.202 GR
[6]
  area over the GR curve: 0.0756 GR
[7]
  area over the GR curve: 0.122 GR
[8]
  area over the GR curve: 0.0327 GR
[9]
  area over the GR curve: -0.0292 GR
[10]
  area over the GR curve: -0.139 GR
[11]
  area over the GR curve: 0.0309 GR
[12]
  area over the GR curve: 0.116 GR
[13]
  area over the GR curve: 0.0369 GR

## CN(C)CC[C@H](CSc1ccccc1)Nc1ccc(S(=O)(=O)NC(=O)c2ccc(N3CCN(Cc4ccccc4-c4ccc(Cl)cc4)CC3)cc2)cc1[N+](=O)[O-] [ABT-737] (max 10 µM)
[1]
  area over the GR curve: 0.0757 GR
[2]
  area over the GR curve: 0.026 GR
[3]
  area over the GR curve: 0.102 GR
[4]
  area over the GR curve: -0.0097 GR
[5]
  area over the GR curve: 0.296 GR
[6]
  area over the GR curve: 0.0119 GR
[7]
  area over the GR curve: -0.0166 GR
[8]
  area over the GR curve: 0.111 GR
[9]
  area over the GR curve: 0.318 GR
[10]
  area over the GR curve: -0.0268 GR
[11]
  area over the GR curve: 0.0034 GR
[12]
  area over the GR curve: 0.162 GR
[13]
  area over the GR curve: 0.0913 GR

## COc1cc(N2CCN(C)CC2)ccc1Nc1ncc2c(n1)N(C)c1ccccc1C(=O)N2CC(F)(F)F [FMF-03-146-1]
[1]
  area over the GR curve: -0.0411 GR
[2]
  area over the GR curve: 0.0103 GR
[3]
  area over the GR curve: 0.0546 GR
[4]
  area over the GR curve: -0.0085 GR
[5]
  area over the GR curve: 0.0485 GR
[6]
  area over the GR curve: 0.0454 GR
[7]
  area over the GR curve: 0.0652 GR
[8]
  area over the GR curve: 0.0185 GR
[9]
  area over the GR curve: -0.0612 GR
[10]
  area over the GR curve: 0.0118 GR
[11]
  area over the GR curve: 0.0317 GR
[12]
  area over the GR curve: 0.0225 GR
[13]
  area over the GR curve: 0.0104 GR

## CCc1cncnc1N1CCN(Cc2nc3ccc(C(F)(F)F)cc3[nH]2)CC1 (max 10 µM)
[1]
  area over the GR curve: 0.0787 GR
[2]
  area over the GR curve: 0.0252 GR
[3]
  area over the GR curve: 0.0639 GR
[4]
  area over the GR curve: 0.0713 GR
[5]
  area over the GR curve: -0.0304 GR
[6]
  area over the GR curve: 0.0548 GR
[7]
  area over the GR curve: 0.122 GR
[8]
  area over the GR curve: -0.0563 GR
[9]
  area over the GR curve: 0.0337 GR
[10]
  area over the GR curve: -0.104 GR
[11]
  area over the GR curve: 0.0106 GR
[12]
  area over the GR curve: 0.0105 GR
[13]
  area over the GR curve: 0.0479 GR

## CO[C@H]1C[C@@H]2CC[C@@H](C)[C@@](O)(O2)C(=O)C(=O)N2CCCC[C@H]2C(=O)O[C@H]([C@H](C)C[C@@H]2CC[C@@H](OCCO)[C@H](OC)C2)CC(=O)[C@H](C)/C=C(\C)[C@@H](O)[C@@H](OC)C(=O)[C@H](C)C[C@H](C)/C=C/C=C/C=C/1C [Everolimus] (max 10 µM)
[1]
  area over the GR curve: 0.408 GR
[2]
  area over the GR curve: 0.527 GR
[3]
  area over the GR curve: 0.343 GR
[4]
  area over the GR curve: 0.714 GR
[5]
  area over the GR curve: 0.486 GR
[6]
  area over the GR curve: 0.564 GR
[7]
  area over the GR curve: 0.616 GR
[8]
  area over the GR curve: 0.731 GR
[9]
  area over the GR curve: 0.349 GR
[10]
  area over the GR curve: 0.898 GR
[11]
  area over the GR curve: 0.108 GR
[12]
  area over the GR curve: 0.225 GR
[13]
  area over the GR curve: 0.226 GR

## CN1CCN(C(=O)c2ccc3cc(CCNc4ncnc5ccc(C#N)cc45)ccc3c2)CC1 [senexin b] (max 10 µM)
[1]
  area over the GR curve: 0.141 GR
[2]
  area over the GR curve: 0.139 GR
[3]
  area over the GR curve: 0.22 GR
[4]
  area over the GR curve: 0.185 GR
[5]
  area over the GR curve: 0.152 GR
[6]
  area over the GR curve: 0.249 GR
[7]
  area over the GR curve: 0.322 GR
[8]
  area over the GR curve: 0.219 GR
[9]
  area over the GR curve: 0.158 GR
[10]
  area over the GR curve: 0.0613 GR
[11]
  area over the GR curve: 0.0855 GR
[12]
  area over the GR curve: 0.0788 GR
[13]
  area over the GR curve: 0.21 GR

## C[C@@H]1COCCN1c1cc(C2([S@](C)(=N)=O)CC2)nc(-c2cc[nH]c3nccc2-3)n1 [AZD6738] (max 10 µM)
[1]
  area over the GR curve: 0.0121 GR
[2]
  area over the GR curve: 0.0772 GR
[3]
  area over the GR curve: 0.0282 GR
[4]
  area over the GR curve: 0.0149 GR
[5]
  area over the GR curve: 0.247 GR
[6]
  area over the GR curve: 0.179 GR
[7]
  area over the GR curve: -0.205 GR
[8]
  area over the GR curve: 0.0109 GR
[9]
  area over the GR curve: 0.053 GR
[10]
  area over the GR curve: 0.0277 GR
[11]
  area over the GR curve: 0.0107 GR
[12]
  area over the GR curve: -0.0233 GR
[13]
  area over the GR curve: 0.0968 GR

## COc1ccc2c(c1)[C@]1(C[C@H]1c1ccc3c(/C=C/c4ccc(CN5C[C@@H](C)O[C@@H](C)C5)cc4)n[nH]c3c1)C(=O)N2
[1]
  area over the GR curve: 0.516 GR
[2]
  area over the GR curve: 0.941 GR
[3]
  area over the GR curve: 0.534 GR
[4]
  area over the GR curve: 0.416 GR
[5]
  area over the GR curve: 0.852 GR
[6]
  area over the GR curve: 0.906 GR
[7]
  area over the GR curve: 0.79 GR
[8]
  area over the GR curve: 0.397 GR
[9]
  area over the GR curve: 0.435 GR
[10]
  area over the GR curve: 0.475 GR
[11]
  area over the GR curve: 0.629 GR
[12]
  area over the GR curve: 0.765 GR
[13]
  area over the GR curve: 0.675 GR

## CC(=O)O[C@H]1C(=O)[C@@]2(C)[C@H]([C@H](OC(=O)c3ccccc3)[C@]3(O)C[C@H](OC(=O)[C@H](O)[C@@H](NC(=O)c4ccccc4)c4ccccc4)C(C)=C1C3(C)C)[C@]1(OC(C)=O)CO[C@@H]1C[C@@H]2O [Paclitaxel] (max 1 µM)
[1]
  area over the GR curve: 0.898 GR
[2]
  area over the GR curve: 0.954 GR
[3]
  area over the GR curve: 0.839 GR
[4]
  area over the GR curve: 0.905 GR
[5]
  area over the GR curve: 0.843 GR
[6]
  area over the GR curve: 0.772 GR
[7]
  area over the GR curve: 0.661 GR
[8]
  area over the GR curve: 0.874 GR
[9]
  area over the GR curve: 0.663 GR
[10]
  area over the GR curve: 0.873 GR
[11]
  area over the GR curve: 0.65 GR
[12]
  area over the GR curve: 0.702 GR
[13]
  area over the GR curve: 0.91 GR

## CCCCOc1c(C(=O)c2c(F)cc(C)cc2F)c[nH]c2nncc1-2 (max 10 µM)
[1]
  area over the GR curve: 0.464 GR
[2]
  area over the GR curve: 0.651 GR
[3]
  area over the GR curve: 0.837 GR
[4]
  area over the GR curve: 0.519 GR
[5]
  area over the GR curve: 0.768 GR
[6]
  area over the GR curve: 0.697 GR
[7]
  area over the GR curve: 0.649 GR
[8]
  area over the GR curve: 0.497 GR
[9]
  area over the GR curve: 0.657 GR
[10]
  area over the GR curve: 0.137 GR
[11]
  area over the GR curve: 0.466 GR
[12]
  area over the GR curve: 0.334 GR
[13]
  area over the GR curve: 0.662 GR

## Cc1nc(-c2cn3c(n2)-c2ccc(-c4cnn(C(C)(C)C(N)=O)c4)cc2OCC3)n(C(C)C)n1 [Taselisib/GDC0032] (max 10 µM)
[1]
  area over the GR curve: 0.647 GR
[2]
  area over the GR curve: 0.374 GR
[3]
  area over the GR curve: 0.476 GR
[4]
  area over the GR curve: 1.43 GR
[5]
  area over the GR curve: 0.202 GR
[6]
  area over the GR curve: 0.768 GR
[7]
  area over the GR curve: 0.899 GR
[8]
  area over the GR curve: 0.944 GR
[9]
  area over the GR curve: 0.598 GR
[10]
  area over the GR curve: 1.43 GR
[11]
  area over the GR curve: 0.399 GR
[12]
  area over the GR curve: 0.254 GR
[13]
  area over the GR curve: 0.397 GR
